Our source for the IC50 values is patent publication US11530208B2, “Imidazo[4,5-C]pyridine derived SSAO inhibitors” (PROXIMAGEN, LLC, priority 2014, dated 2022).

Usually IC50 stands for the concentration that inhibits the measured activity by half.

One series concerns the target human SSAO (Homo sapiens (Human), UniProt Q16853). The experiment in a line: SSAO enzyme inhibition assay. The series is classed as biochemical. The note with it: purified recombinantly expressed human SSAO, benzylamine substrate, RT. The method, then: All primary assays were performed at RT. with purified recombinantly expressed human SSAO. Enzyme was prepared essentially as described in Öhman et al. (Protein Expression and Purification 46 (2006) 321-331). In addition, secondary- and selectivity assays were performed using SSAO prepared from various tissues or purified rat recombinant SSAO. The enzyme activity was assayed with benzylamine as substrate by measuring either benzaldehyde production, using ^14C-labeled substrate, or by utilizing the production of hydrogen peroxide in a horseradish peroxidase (HRP) coupled reaction. Briefly, test compounds were dissolved in dimethyl sulfoxide (DMSO) to a concentration of 10 mM. Dose-response measurements were assayed by either creating 1:10 serial dilutions in DMSO to produce a 7 point curve or by making 1:3 serial dilutions in DMSO to produce 11 point curves. The top concentrations were adjusted depending on the potency of the compounds and subsequent dilution in reaction buffer yielded a final DMSO concentration ≤2%.
In a horseradish peroxidase (HRP) coupled reaction, hydrogen peroxide oxidation of 10-acetyl-3,7-dihydroxyphenoxazine produced resorufin, which is a highly fluorescent compound (Zhout and Panchuk-Voloshina. Analytical Biochemistry 253 (1997) 169-174; Amplex® Red Hydrogen Peroxide/peroxidase Assay kit, Invitrogen A22188). Enzyme and compounds in 50 mM sodium phosphate, pH 7.4 were set to pre-incubate in flat-bottomed microtiter plates for approximately 15 min before initiating the reaction by addition of a mixture of HRP, benzylamine and Amplex reagent. Benzylamine concentration was fixed at a concentration corresponding to the Michaelis constant, determined using standard procedures. Fluorescence intensity was then measured at several time points during 1-2 h, exciting at 544 nm and reading the emission at 590 nm. For the human SSAO assay final concentrations of the reagents in the assay wells were: SSAO enzyme 1 ug/mL, benzylamine 100 uM, Amplex reagent 20 uM, HRP 0.1 U/mL and varying concentrations of test compound. The inhibition was measured as % decrease of the signal compared to a control without inhibitor (only diluted DMSO). The background signal from a sample containing no SSAO enzyme was subtracted from all data points. Data was fitted to a four parameter logistic model and IC50 values were calculated using the GraphPad Prism 4 or XLfit 4 programs.
SSAO activity was assayed using 14C-labeled benzylamine and analysed by measuring radioactive benzaldehyde. In a white 96-well optiplate (Packard), 20 uL of diluted test compound was pre-incubated at RT with 20 uL SSAO enzyme for approximately 15 min with continuous agitation. All dilutions were made with PBS. The reaction was initiated by adding 20 uL of the benzylamine substrate solution containing [7-14C] Benzylamine hydrochloride (CFA589, GE Healthcare). The plate was incubated for 1 h as above after which the reaction was stopped by acidification (10 uL 1M aq HCl). Then 90 uL Micro Scint-E solution (Perkin-Elmer) was added to each well and the plate was continuously mixed for 15 min. Phase separation occurred instantly and activity was read in a Topcount scintillation counter (Perkin-Elmer). In the final reaction well, the human recombinant SSAO concentration was 10 ug/mL. In order to optimize sensitivity, the substrate concentration was decreased as compared to the HRP coupled assay in order to get a higher fraction of radioactive product. In the human SSAO assay, benzylamine concentration was 40 uM (0.2 uCi/mL). Data was analysed as above.

The target of series [1] is human ether a go-go related gene (hERG) K+ channel (Homo sapiens (Human), UniProt Q12809). In words: hERG assay, IonWorks patch clamp electrophysiology. The series is classed as cell-based. Particulars: Chinese Hamster Lung cell line stably expressing hERG, max concentration 11 uM. On the procedure: Compounds of the invention were tested for inhibition of the human ether a go-go related gene (hERG) K^+ channel using IonWorks patch clamp electrophysiology. 8 Point concentration-response curves were generated on two occasions using 3-fold serial dilutions from the maximum assay concentration (11 uM). Electrophysiological recordings were made from a Chinese Hamster Lung cell line stably expressing the full length hERG channel. Single cell ion currents were measured in the perforated patch clamp configuration (100 ug/mL amphoterocin) at RT using an IonWorks Quattro instrument. The internal solution contained 140 mM KCl, 1 mM MgCl2, 1 mM EGTA and 20 mM HEPES and was buffered to pH 7.3. The external solution contained 138 mM NaCl, 2.7 mM KCl, 0.9 mM CaCl2, 0.5 mM MgCl2, 8 mM Na2HPO4 and 1.5 mM KH2PO4, and was buffered to pH 7.3. Cells were clamped at a holding potential of […] for 30 s and then stepped to +40 mV for 1 s. This was followed by a hyperpolarising step of 1 s to […] to evoke the hERG tail current. This sequence was repeated 5 times at a frequency of 0.25 Hz. Currents were measured from the tail step at the 5th pulse, and referenced to the holding current. Compounds were incubated for 6-7 min prior to a second measurement of the hERG signal using an identical pulse train. A minimum of 17 cells were required for each pIC50 curve fit. […]
(Block of hERG is tested as a sign of cardiac risk.)

Sequence of human SSAO (Q16853 29-763): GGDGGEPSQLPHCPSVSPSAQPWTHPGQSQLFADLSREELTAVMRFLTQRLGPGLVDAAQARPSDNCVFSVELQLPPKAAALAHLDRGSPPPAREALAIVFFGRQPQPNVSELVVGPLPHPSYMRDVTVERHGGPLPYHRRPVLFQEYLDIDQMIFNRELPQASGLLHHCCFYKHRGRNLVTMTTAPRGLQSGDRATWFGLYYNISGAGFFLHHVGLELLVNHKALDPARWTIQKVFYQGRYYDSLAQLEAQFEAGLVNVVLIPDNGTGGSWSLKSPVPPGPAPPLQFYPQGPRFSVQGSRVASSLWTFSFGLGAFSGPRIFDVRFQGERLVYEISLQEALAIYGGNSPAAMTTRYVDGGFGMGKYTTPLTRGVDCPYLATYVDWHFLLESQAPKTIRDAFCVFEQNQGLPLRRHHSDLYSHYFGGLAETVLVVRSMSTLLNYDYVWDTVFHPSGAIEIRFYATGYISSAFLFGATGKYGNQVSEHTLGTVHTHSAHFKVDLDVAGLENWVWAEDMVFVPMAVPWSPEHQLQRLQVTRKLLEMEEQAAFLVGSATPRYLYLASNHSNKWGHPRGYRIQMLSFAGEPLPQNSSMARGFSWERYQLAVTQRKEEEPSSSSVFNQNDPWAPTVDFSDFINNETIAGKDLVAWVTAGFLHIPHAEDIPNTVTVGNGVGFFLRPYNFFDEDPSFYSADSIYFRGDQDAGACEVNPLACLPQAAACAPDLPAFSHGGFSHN
Sequence of human ether a go-go related gene (hERG) K+ channel (Q12809 whole entry): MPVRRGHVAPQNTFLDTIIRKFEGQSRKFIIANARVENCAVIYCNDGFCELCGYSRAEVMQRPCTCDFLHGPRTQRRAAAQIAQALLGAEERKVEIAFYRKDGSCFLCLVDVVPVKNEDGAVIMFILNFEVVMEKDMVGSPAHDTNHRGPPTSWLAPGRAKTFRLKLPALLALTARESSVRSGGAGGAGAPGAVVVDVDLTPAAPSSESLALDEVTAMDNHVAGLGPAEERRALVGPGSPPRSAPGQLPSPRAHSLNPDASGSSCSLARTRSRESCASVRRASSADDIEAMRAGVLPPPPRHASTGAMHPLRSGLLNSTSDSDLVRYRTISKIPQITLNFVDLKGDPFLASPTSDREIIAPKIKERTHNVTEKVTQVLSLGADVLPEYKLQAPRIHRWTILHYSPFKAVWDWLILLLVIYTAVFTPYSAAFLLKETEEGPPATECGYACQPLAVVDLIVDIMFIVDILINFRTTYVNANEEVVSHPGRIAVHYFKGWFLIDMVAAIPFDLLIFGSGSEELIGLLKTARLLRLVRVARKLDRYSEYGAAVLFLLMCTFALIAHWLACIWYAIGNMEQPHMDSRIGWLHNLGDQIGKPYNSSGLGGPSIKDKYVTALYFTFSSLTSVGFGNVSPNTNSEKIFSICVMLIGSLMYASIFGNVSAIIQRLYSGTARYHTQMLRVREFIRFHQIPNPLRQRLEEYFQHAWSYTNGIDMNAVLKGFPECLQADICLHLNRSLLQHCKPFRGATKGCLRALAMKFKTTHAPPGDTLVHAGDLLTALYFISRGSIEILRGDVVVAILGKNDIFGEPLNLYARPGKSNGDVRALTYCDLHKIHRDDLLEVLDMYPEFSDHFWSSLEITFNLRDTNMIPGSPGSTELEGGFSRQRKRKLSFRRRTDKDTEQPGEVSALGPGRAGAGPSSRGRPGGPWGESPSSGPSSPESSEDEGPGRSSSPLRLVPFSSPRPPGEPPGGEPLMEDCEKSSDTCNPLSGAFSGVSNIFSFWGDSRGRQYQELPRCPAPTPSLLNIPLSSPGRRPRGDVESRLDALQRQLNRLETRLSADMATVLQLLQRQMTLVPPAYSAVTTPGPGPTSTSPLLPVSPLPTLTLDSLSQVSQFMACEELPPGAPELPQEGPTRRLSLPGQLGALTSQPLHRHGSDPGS

As to `O=C1Cc2cc(-c3nc4ccncc4n3-c3ccc(F)cc3)ccc2N1` [Example 1, 5-[3-(4-Fluorophenyl)-3H-imidazo[4,5-c]pyridin-2-yl]-2,3-dihydro-1H-indol-2-one], on human SSAO, the half-maximal inhibitory concentration (IC50) is 0.05 to 0.2 µM.

With `Fc1ccc(-n2c(-c3ccc4nc[nH]c4c3)nc3ccncc32)cc1` [Example 2, 5-[3-(4-Fluorophenyl)-3H-imidazo[4,5-c]pyridin-2-yl]-1H-1,3-benzodiazole], the IC50 at human SSAO was 0.2 to 0.5 µM. On to `CC(C)(O)CNc1ncc(-c2nc3ccncc3n2-c2ccc(F)cc2)cn1` [Example 3, 1-({5-[3-(4-Fluorophenyl)-3H-imidazo[4,5-c]pyridin-2-yl]pyrimidin-2-yl}amino)-2-methylpropan-2-ol], for which the IC50 on human SSAO is less than 0.05 µM; in series [1], more than 10 µM. `Cc1ccc(-n2c(-c3cnc(NCC(C)(C)O)nc3)nc3ccncc32)cc1` [Example 4, 2-Methyl-1-({5-[3-(4-methylphenyl)-3H-imidazo[4,5-c]pyridin-2-yl]pyrimidin-2-yl}amino)propan-2-ol]: on human SSAO, the IC50 is less than 0.05 µM. As for `Clc1ccc(-n2c(C3CCN(c4ccncc4)CC3)nc3ccncc32)cc1` [Example 5, 4-{4-[3-(4-Chlorophenyl)-3H-imidazo[4,5-c]pyridin-2-yl]piperidin-1-yl}pyridine; bis(formic acid)], the figures for the IC50 (at human SSAO; in series [1]) were less than 0.05 µM and 0.01 to 1 µM, respectively. For `O=c1cc(N2CCC(c3nc4ccncc4n3-c3ccc(Cl)cc3)CC2)nc[nH]1` [Example 6, 6-{4-[3-(4-Chlorophenyl)-3H-imidazo[4,5-c]pyridin-2-yl]piperidin-1-yl}-3,4-dihydropyrimidin-4-one], the IC50 on human SSAO lay within 0.2 to 0.5 µM. On the same count and under the same terms, under `Clc1ccc(-n2c(Cc3cccnc3)nc3ccncc32)cc1` [Example 7, 3-{[3-(4-Chlorophenyl)-3H-imidazo[4,5-c]pyridin-2-yl]methyl}pyridine; bis(formic acid)] stands 0.2 to 0.5 µM. Take `Clc1ccc(-n2c(CCCn3ccnc3)nc3ccncc32)cc1` [Example 8, 1-{3-[3-(4-chlorophenyl)-3H-imidazo[4,5-c]pyridin-2-yl]propyl}-1H-imidazole]: the IC50 on human SSAO was in the range of 0.2 to 0.5 µM. On the same count and under the same terms, under `O=C(NCC1CCOCC1)c1nc2ccncc2n1-c1ccc(F)cc1` [Example 9, 3-(4-Fluorophenyl)-N-(oxan-4-ylmethyl)-3H-imidazo[4,5-c]pyridine-2-carboxamide] stands 0.2 to 0.5 µM.
